Assay results: patent publication US20240076314A1 (priority 2020, published 2024)
Where a SMILES comes first, the peptide text is derived from it. Bridges are numbered along the chain shown (N, C = ends).

Target: human nAChR (hnAChR α1/β1/γ/ε-HEK 293 Recombinant Cell Line) (Homo sapiens, UniProt P02708+Q04844+Q07001)
Assay: cell-based

Chain of human nAChR (hnAChR α1/β1/γ/ε-HEK 293 Recombinant Cell Line) (P02708 whole entry, looked up): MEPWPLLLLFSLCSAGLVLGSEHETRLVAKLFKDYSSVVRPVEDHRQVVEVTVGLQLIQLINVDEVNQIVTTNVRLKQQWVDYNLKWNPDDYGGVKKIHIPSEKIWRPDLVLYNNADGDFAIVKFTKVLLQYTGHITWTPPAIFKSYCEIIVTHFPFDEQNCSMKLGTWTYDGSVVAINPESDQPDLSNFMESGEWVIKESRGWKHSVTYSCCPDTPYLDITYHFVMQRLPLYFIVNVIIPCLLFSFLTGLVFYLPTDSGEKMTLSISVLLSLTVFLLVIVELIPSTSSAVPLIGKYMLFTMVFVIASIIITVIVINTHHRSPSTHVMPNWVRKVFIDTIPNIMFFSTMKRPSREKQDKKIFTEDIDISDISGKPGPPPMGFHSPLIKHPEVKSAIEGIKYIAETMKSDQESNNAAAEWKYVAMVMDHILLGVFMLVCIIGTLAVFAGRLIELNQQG
Chain of human nAChR (hnAChR α1/β1/γ/ε-HEK 293 Recombinant Cell Line) (Q04844 whole entry, looked up): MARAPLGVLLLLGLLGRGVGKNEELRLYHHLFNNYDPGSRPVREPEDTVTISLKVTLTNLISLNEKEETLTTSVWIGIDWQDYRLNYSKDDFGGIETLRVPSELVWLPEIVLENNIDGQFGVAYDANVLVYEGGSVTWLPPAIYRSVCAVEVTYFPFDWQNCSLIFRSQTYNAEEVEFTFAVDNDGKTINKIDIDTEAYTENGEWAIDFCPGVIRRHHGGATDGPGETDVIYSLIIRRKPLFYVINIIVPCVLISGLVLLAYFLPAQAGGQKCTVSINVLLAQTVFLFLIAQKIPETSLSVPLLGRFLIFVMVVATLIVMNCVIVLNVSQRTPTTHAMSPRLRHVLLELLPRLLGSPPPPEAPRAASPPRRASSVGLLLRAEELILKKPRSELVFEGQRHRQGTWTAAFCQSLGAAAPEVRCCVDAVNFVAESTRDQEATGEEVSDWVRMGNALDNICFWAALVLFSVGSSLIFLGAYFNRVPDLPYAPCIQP
Chain of human nAChR (hnAChR α1/β1/γ/ε-HEK 293 Recombinant Cell Line) (Q07001 whole entry, looked up): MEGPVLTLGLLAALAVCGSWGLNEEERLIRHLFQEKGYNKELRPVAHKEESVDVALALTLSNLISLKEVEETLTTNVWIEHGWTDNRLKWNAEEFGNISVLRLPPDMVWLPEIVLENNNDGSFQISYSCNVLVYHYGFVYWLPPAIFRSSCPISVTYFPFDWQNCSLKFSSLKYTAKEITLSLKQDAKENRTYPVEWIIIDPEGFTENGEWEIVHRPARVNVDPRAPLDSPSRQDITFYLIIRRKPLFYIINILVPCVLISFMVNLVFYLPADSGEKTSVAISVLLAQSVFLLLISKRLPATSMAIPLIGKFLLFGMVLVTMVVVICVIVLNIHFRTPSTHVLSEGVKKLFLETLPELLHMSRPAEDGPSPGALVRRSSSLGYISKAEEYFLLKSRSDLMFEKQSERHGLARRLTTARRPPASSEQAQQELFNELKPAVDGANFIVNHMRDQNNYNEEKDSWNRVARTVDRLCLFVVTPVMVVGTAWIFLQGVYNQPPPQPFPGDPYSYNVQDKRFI

Row | SMILES | IC50
1 | CC(=O)N[C@H]1CSSC[C@@H]2NC(=O)[C@H](C)NC(=O)[C@@H]3CCCN3C(=O)[C@H](CC(N)=O)NC(=O)[C@H](CSSC[C@@H](C(N)=O)NC(=O)[C@H](CO)NC(=O)[C@H](Cc3ccc(O)cc3)NC(=O)[C@H](CC(N)=O)NC(=O)[C@H](CCCCN)NC(=O)CNC2=O)NC1=O [SEQ ID NO: 60, Ac-Cys-Cys-Asn-Pro-Ala-Cys-Gly-Lys-Asn-Tyr-Ser-Cys-NH2] (Ac-CCNPACGKNYSC-NH2; disulfide 1-6, 2-12) | > 100 nM
2 | CC(=O)N[C@H]1CSSC[C@@H]2NC(=O)[C@H](C)NC(=O)[C@@H]3CCCN3C(=O)[C@H](CC(N)=O)NC(=O)[C@H](CSSC[C@@H](C(N)=O)NC(=O)[C@H](CCCCN)NC(=O)[C@H](Cc3ccc(O)cc3)NC(=O)[C@H](CC(N)=O)NC(=O)[C@H](CCCCN)NC(=O)CNC2=O)NC1=O [SEQ ID NO: 62, Ac-Cys-Cys-Asn-Pro-Ala-Cys-Gly-Lys-Asn-Tyr-Lys-Cys-NH2] (Ac-CCNPACGKNYKC-NH2; disulfide 1-6, 2-12) | > 100 nM
